Experimental data reported in paper PMC12652113, “Fluorescent Albumin-Binding N-Propylbenzene Indolenine-Based Squaraines as Potential Candidates for Prostate Cancer Photodynamic Therapy Photosensitizers” (International Journal of Molecular Sciences, 2025).

Assay: Absorption and fluorescence photophysical characterization in organic solvents
Format: physicochemical
Procedure: UV–Vis spectra were recorded on a Perkin-Elmer Lambda 25 spectrophotometer (Perkin-Elmer, Waltham, MA, USA) using Hellma Analytics quartz cuvettes (1 cm path length; Hellma Analytics, Müllheim, Germany). Spectral data are reported as maximum absorption wavelength (λmax, nm) and molar absorptivity (ε, M^−1·cm^−1). The latter was calculated according to the Lambert–Beer law from calibration plots of absorbance at λmax versus known dye concentrations.
Ultraviolet–visible absorption spectra were obtained at room temperature using a PerkinElmer Lambda 25 spectrophotometer, while fluorescence emission data were collected on a Horiba Jobin Yvon FluoroMax-4 fluorometer. Singlet oxygen and photostability tests and measurements were carried out on a BioRad xMark microplate reader (Bio-Rad, Hercules, CA, USA).
[…] All stock solutions were prepared at 0.67 mM concentration and stored in the dark at 4 °C until further use. For spectroscopic characterization, 1.0 µM stock solutions of the squaraine dyes in dimethyl sulfoxide were serially diluted into a series of solvents (chloroform, dimethyl sulfoxide, methanol, and phosphate buffer) to obtain at least five defined concentrations. The absorption spectra of these dilutions were recorded and used to calculate molar extinction coefficients according to the Beer–Lambert law. Additional working solutions at a 1.0 µM concentration were prepared in dimethyl sulfoxide and buffer, and 1.0% Triton X-100 was added where required to investigate dye aggregation.
The emission areas were integrated, and relative quantum yields were calculated following established methodologies, considering both absorbance at the excitation wavelength and the refractive index of the solvent. The calculation was performed using Equation (2), where “dye” and “ref” denote the squaraine dyes and the reference compound, respectively; I corresponds to the integrated emission intensity, A to the absorbance value at the excitation wavelength, and η to the refractive index of the solvent:(2) ΦF(dye)= ΦF(Std)Idye/Iref Aref/Adye ηdye2/ηref2

[1] = DMSO, relative to zinc phthalocyanine

| SMILES | Stokes shift (ΔS) (DMSO) [nm] | absorption maximum (λabs) (DMSO) [nm] | emission maximum (λem) (DMSO) [nm] | molar absorption coefficient (ε) (DMSO) [M⁻¹ cm⁻¹] | fluorescence quantum yield (ΦF) [1] | Stokes shift (ΔS) (chloroform (CFM)) [nm] | absorption maximum (λabs) (chloroform (CFM)) [nm] | emission maximum (λem) (chloroform (CFM)) [nm] | fluorescence quantum yield (ΦF) (chloroform (CFM)) | molar absorption coefficient (ε) (chloroform (CFM)) [M⁻¹ cm⁻¹] | Stokes shift (ΔS) (methanol (MeOH)) [nm] | absorption maximum (λabs) (methanol (MeOH)) [nm] | emission maximum (λem) (methanol (MeOH)) [nm] | fluorescence quantum yield (ΦF) (methanol (MeOH)) | molar absorption coefficient (ε) (methanol (MeOH)) [M⁻¹ cm⁻¹] |
| --- | --- | --- | --- | --- | --- | --- | --- | --- | --- | --- | --- | --- | --- | --- | --- |
| CNC1=C(C=C2N(CCCc3ccccc3)c3ccccc3C2(C)C)C(=O)C1=CC1=[N+](CCCc2ccccc2)c2ccccc2C1(C)C.[I-] [Dye 11, 2-{3-[3,3-Dimethyl-1-(3-phenylpropyl)indolin-2-ylidenemethyl]-2-(methylamino)-4-oxocyclobut-2-en-1-ylidenemethyl}-3,3-dimethyl-1-(3-phenylpropyl)-indol-1-ium Iodide] | 12 | 663 | 675 | 212000 | 0.04 | 13 | 657 | 670 | 0.10 | 202000 | 11 | 650 | 661 | 0.01 | 174000 |
| CC1(C)C(=CC2=C(N)C(=CC3=[N+](CCCc4ccccc4)c4ccccc4C3(C)C)C2=O)N(CCCc2ccccc2)c2ccccc21.[I-] [Dye 9, 2-{2-Amino-3-[3,3-dimethyl-1-(3-phenylpropyl)indolin-2-ylidenemethyl]-4-oxocyclobut-2-en-1-ylidenemethyl}-3,3-dimethyl-1-(3-phenylpropyl)-indol-1-ium Iodide] | 12 | 652 | 664 | 232000 | 0.12 | 9 | 647 | 656 | 0.08 | 330000 | 12 | 640 | 652 | 0.02 | 303000 |
| CC1(C)C(=CC2=C([O-])C(=CC3=[N+](CCCc4ccccc4)c4ccccc4C3(C)C)C2=O)N(CCCc2ccccc2)c2ccccc21 [Dye 5, 4-[3,3-Dimethyl-1-(3-phenylpropyl)-indol-1-ium-2-ylmethylene]-2-[3,3-dimethyl-1-(3-phenylpropyl)indolin-2-ylidenemethyl]-3-oxocyclobut-1-en-1-olate] | 13 | 646 | 659 | 293000 | 1.00 | 1 | 638 | 639 | 0.46 | 428000 | 13 | 631 | 644 | 0.16 | 422000 |
| CC1(C)C(=CC2=C(NCc3ccc4ccc5cccc6ccc3c4c56)C(=CC3=[N+](CCCc4ccccc4)c4ccccc4C3(C)C)C2=O)N(CCCc2ccccc2)c2ccccc21.[I-] [Dye 14, 2-({3-[3,3-dimethyl-1-(3-phenylpropyl)indolin-2-ylidenemethyl]-4-oxo-2-[(pyren-1-ylmethyl)amino]cyclobut-2-en-1-ylidene}methyl)-3,3-dimethyl-1-(3-phenylpropyl)-indol-1-ium Iodide] | 15 | 661 | 676 | 197000 | 0.05 | 13 | 658 | 671 | 0.06 | 281000 | 13 | 650 | 663 | 0.01 | 285000 |
